Reference: patent publication US10040749B2, “Opsin-binding ligands, compositions and methods of use” (priority 2011, dated 2018)

Tested on: P23H opsin
Experiment: Rhodopsin purification and regeneration (P23H cells treated with compound, regenerated with 9-cis-retinal, 480-500 nm absorbance)
Details: 480-500 nm absorbance as fold increase over DMSO control; P23H cells; compound 10 μM

Compound	Fold Increase Over Control [fold]
CC1=C(CNc2cccc(F)c2)C(C)(C)CCC1.Cl [Compound 10, 3-fluoro-N-((2,6,6-trimethylcyclohex-1-enyl)methyl)aniline hydrochloride]	2.1
C[C@H]1CCCC(C)(C)[C@@H]1CNc1cccc(Cl)c1.Cl [Compound 37, 3-chloro-N-(((1R,6S)-2,2,6-trimethylcyclohexyl)methyl)aniline hydrochloride]	2.4
CC1=C(COc2cccc(Cl)c2)C(C)(C)CCC1 [Compound 8, 1-chloro-3-((2,6,6-trimethylcyclohex-1-enyl)methoxy)benzene]	2.2
CC1=C(CNc2cccc(Cl)c2)C(C)(C)CCC1 [Compound 5, 3-chloro-N-((2,6,6-trimethylcyclohex-1-enyl)methyl)aniline]	1.8
CC1=C(COc2ccc(F)c(F)c2)C(C)(C)CCC1 [Compound 29, 1,2-difluoro-4-((2,6,6-trimethylcyclohex-1-enyl)methoxy) benzene]	2.4
C[C@H]1CCCC(C)(C)[C@@H]1CNc1cccc(F)c1.Cl [Compound 38, 3-fluoro-N-(((1R,6S)-2,2,6-trimethylcyclohexyl)methyl)aniline hydrochloride]	2.4
CC1=C(CNc2cccc(C)c2)C(C)(C)CCC1 [Compound 2, 3-methyl-N-((2,6,6-trimethylcyclohex-1-enyl)methyl)aniline]	2.0
CC1=C(CNc2cccc(C(F)(F)F)c2)C(C)(C)CCC1.Cl [Compound 1, 3-(trifluoromethyl)-N-((2,6,6-trimethylcyclohex-1-enyl)methyl)aniline hydrochloride]	1.8
CC1=C(C(O)Cc2ccc(C)c(C)c2)C(C)(C)CCC1 (centres unmarked) [Compound 30, 2-(3,4-dimethylphenyl)-1-(2,6,6-trimethylcyclohex-1-enyl)ethanol]	1.8
CC1=C(COc2cccc(F)c2)C(C)(C)CCC1 [Compound 7, 1-fluoro-3-((2,6,6-trimethylcyclohex-1-enyl)methoxy)benzene]	2.4
CC1(C)CCCC=C1CNc1cccc(F)c1.Cl [Compound 32, N-((6,6-dimethylcyclohex-1-enyl)methyl)-3-fluoroaniline hydrochloride]	1.7
CC1=C(CNc2ccc(F)c(C)c2)C(C)(C)CCC1.Cl [Compound 15, 4-fluoro-3-methyl-N-((2,6,6-trimethylcyclohex-1-enyl)methyl)aniline hydrochloride]	1.6
CC1=C(COc2cccc(C)c2)C(C)(C)CCC1 [Compound 6, 1-methyl-3-((2,6,6-trimethylcyclohex-1-enyl)methoxy)benzene]	1.6

Same assay, conditions: 480-500 nm absorbance as fold increase over DMSO control; P23H cells; compound 20 μM

Compound	Fold Increase Over Control [fold]
CC(=O)/C=C/C1=C(C)CCCC1(C)C [β-ionone, reference compound]	2.4
CC1=C(CC(O)c2cccc(C(F)(F)F)c2)C(C)(C)CCC1 (centres unmarked) [Compound 20, 1-(3-(trifluoromethyl)phenyl)-2-(2,6,6-trimethylcyclohex-1-enyl)ethanol]	2.4
C[C@H]1CCCC(C)(C)[C@@H]1CNc1cccc(C(F)(F)F)c1.Cl [Compound 12, 3-(trifluoromethyl)-N-(((1R,6S)-2,2,6-trimethylcyclohexyl)methyl)aniline hydrochloride]	2.0

Same assay, conditions: FIG. 1; P23H opsin treated with 20 μM during mutant protein production, relative to vehicle (DMSO) alone

Compound	regeneration of 500 nm absorbing pigment upon treatment with retinal
CC(=O)/C=C/C1=C(C)CCCC1(C)C [β-ionone, reference compound]	increase
